The term IC50 denotes the concentration that gives 50% inhibition. As usually defined, the AUC is concentration integrated over time. Read a high AUC as high exposure. The term Cmax denotes the highest concentration seen after dosing. As a reminder, the Tmax is the time at which the peak concentration occurs. By half-life is commonly meant the time in which the quantity being followed falls by half.

Structures are written as SMILES. Counter-ions that a name gives are not always drawn.

The target of one data set is T1, PD-1/PD-L1 (Homo sapiens, UniProt Q9NZQ7).
T1 construct: Recombinant human PD-L1 protein (19-238) with a His-tag at the C-terminus; purchased AcroBiosystems PD1-H5229 (PD-L1); PD1-H5257 (PD-1)
T1 sequence (Q9NZQ7 19-238): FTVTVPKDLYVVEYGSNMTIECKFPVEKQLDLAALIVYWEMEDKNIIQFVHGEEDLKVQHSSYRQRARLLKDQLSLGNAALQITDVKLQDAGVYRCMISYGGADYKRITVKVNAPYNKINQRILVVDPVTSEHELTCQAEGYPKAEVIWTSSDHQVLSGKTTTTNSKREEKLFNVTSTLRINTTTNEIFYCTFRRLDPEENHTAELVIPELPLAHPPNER
Kind of data set: PD-1/PD-L1 homogenous time-resolved fluorescence (HTRF) binding assay. The note with it: Table 6, class symbols. As for the experimental part:
Resolved Fluorescence (HTRF) Binding Assay
The assays were conducted in a standard black 384-well polystyrene plate with a final volume of 20 μL. Inhibitors were first serially diluted in DMSO and then added to the plate wells before the addition of other reaction components. The final concentration of DMSO in the assay was 1%. The assays were carried out at 25° C. in the PBS buffer (pH 7.4) with 0.05% Tween-20 and 0.1% BSA. Recombinant human PD-L1 protein (19-238) with a His-tag at the C-terminus was purchased from AcroBiosy stems (PD1-H5229). Recombinant human PD-1 protein (25-167) with Fc tag at the C-terminus was also purchased from AcroBiosystems (PD1-H5257). PD-L1 and PD-1 proteins were diluted in the assay buffer and 10 μL was added to the plate well. Plates were centrifuged and proteins were preincubated with inhibitors for 40 min. The incubation was followed by the addition of 10 μL of HTRF detection buffer supplemented with Europium cryptate-labeled anti-human IgG (PerkinElmer-AD0212) specific for Fc and anti-His antibody conjugated to SureLight®-Allophycocyanin (APC, PerkinElmer-AD0059H). After centrifugation, the plate was incubated at 25° C. for 60 min. Before reading on a PHERAstar FS plate reader (665 nm/620 nm ratio). Final concentrations in the assay were […] PD1, 10 nM PD-L1, 1 nM europium anti-human IgG and 20 nM anti-His-Allophycocyanin. IC50 determination was performed by fitting the curve of percent control activity versus the log of the inhibitor concentration using the GraphPad Prism 5.0 software.
Take `Cc1c(-c2ccccc2)cccc1-c1nc2cc(CN3CCC[C@H]3C(=O)O)c(OC(F)F)cc2o1` [Example 36, ((6-(difluoromethoxy)-2-(2-methyl-[1,1′-biphenyl]-3-yl)benzo[d]oxazol-5-yl)methyl)-L-proline]: the half-maximal inhibitory concentration (IC50) was 0.1 to 10 nM.
As for `CSc1cc2oc(-c3cccc(-c4ccccc4)c3C)nc2cc1CN[C@@H](C)C(=O)O` [Example 5, ((2-(2-methyl-[1,1′-biphenyl]-3-yl)-6-(methylthio)benzo[d]oxazol-5-yl)methyl)-L-alanine], the IC50 is 0.1 to 10 nM.
With `CNc1cc2oc(-c3cccc(-c4ccccc4)c3C)nc2cc1CN1CCCCC1C(=O)O` (stereo not shown) [Example 27, 1-((2-(2-methyl-[1,1′-biphenyl]-3-yl)-6-(methylamino)benzo[d]oxazol-5-yl)methyl)piperidine-2-carboxylic acid], the IC50 fell in the range of 0.1 to 10 nM.
`N#Cc1ccccc1-c1cccc(-c2nc3cc(CN4CCC[C@H]4C(=O)O)c(OC(F)F)cc3o2)c1C#N` [Example 45, ((2-(2,2′-dicyano-[1,1′-biphenyl]-3-yl)-6-(difluoromethoxy)benzo[d]oxazol-5-yl)methyl)-L-proline] yielded a half-maximal inhibitory concentration (IC50) of 10 to 100 nM.
On to `Cc1cc2oc(-c3cccc(-c4ccccc4)c3C#N)nc2cc1CN1CCC[C@H]1C(=O)O` [Example 18, ((2-(2-cyano-[1,1′-biphenyl]-3-yl)-6-methylbenzo[d]oxazol-5-yl)methyl)-L-proline], for which the half-maximal inhibitory concentration (IC50) fell in the range of 0.1 to 10 nM.
On the same count and under the same terms, under `Cc1c(-c2ccccc2)cccc1-c1nc2cc(CN3CCCCC3C(=O)O)n3ncnc3c2o1` (stereo not shown) [Example 69, 1-((8-(2-methyl-[1,1′-biphenyl]-3-yl)oxazolo[5,4-c][1,2,4]triazolo[1,5-a]pyridin-5-yl)methyl)piperidine-2-carboxylic acid] stands 100 to 1000 nM; under `Cc1c(-c2ccccc2)cccc1-c1nc2cc(CN[C@@H](Cc3ccc(O)cc3)C(=O)O)c(OC(F)F)cc2o1` [Example 32, ((6-(difluoromethoxy)-2-(2-methyl-[1,1′-biphenyl]-3-yl)benzo[d]oxazol-5-yl)methyl)-L-tyrosine hydrochloride], 0.1 to 10 nM; under `Cc1c(-c2ccccc2)cccc1-c1nc2cc(CN3COC[C@H]3C(=O)O)c(OC(F)F)cc2o1` [Example 53, (S)-3-((6-(difluoromethoxy)-2-(2-methyl-[1,1′-biphenyl]-3-yl)benzo[d]oxazol-5-yl)methyl)oxazolidine-4-carboxylic acid], 10 to 100 nM.
In turn, `Cc1c(-c2ccccc2)cccc1-c1nc2cc3c(cc2o1)OC[C@H](C(=O)O)NC3` [Example 72, (R)-2-(2-methyl-[1,1′-biphenyl]-3-yl)-6,7,8,9-tetrahydrooxazolo[5′,4′:4,5]benzo[1,2-f][1,4]oxazepine-7-carboxylic acid] displayed an IC50 of 100 to 1000 nM.
`CSc1cc2oc(-c3cccc(-c4ccccc4C#N)c3C#N)nc2cc1CN1CCC[C@H]1C(=O)O` [Example 15, ((2-(2,2′-dicyano-[1,1′-biphenyl]-3-yl)-6-(methylthio)benzo[d]oxazol-5-yl)methyl)-L-proline]: the IC50 fell in the range of 10 to 100 nM.
With `Cc1cc2oc(-c3cccc(-c4ccccc4)c3C#N)nc2cc1CN1CCOC[C@H]1C(=O)O` [Example 19, (S)-4-((2-(2-cyano-[1,1′-biphenyl]-3-yl)-6-methylbenzo[d]oxazol-5-yl)methyl)morpholine-3-carboxylic acid], the IC50 is 0.1 to 10 nM.
`Cc1c(-c2ccccc2)cccc1-c1nc2cc(CN3CCCCC3C(=O)O)c(OCC(F)F)cc2o1` (stereo not shown) [Example 55, 1-((6-(2,2-difluoroethoxy)-2-(2-methyl-[1,1′-biphenyl]-3-yl)benzo[d]oxazol-5-yl)methyl)piperidine-2-carboxylic acid] gave a 50% inhibitory concentration (IC50) of 10 to 100 nM.
On the same count and under the same terms, for `Cc1c(-c2ccccc2)cccc1-c1nc2cc(CN3CCCC3(C)C(=O)O)c(OCC(F)(F)F)cc2o1` (stereo not shown) [Example 61, 2-methyl-1-((2-(2-methyl-[1,1′-biphenyl]-3-yl)-6-(2,2,2-trifluoroethoxy)benzo[d]oxazol-5-yl)methyl)pyrrolidine-2-carboxylic acid] the value was 10 to 100 nM.
Still for that read-out and setting: under `Cc1c(-c2ccccc2)cccc1-c1nc2cc(CN3CCC3C(=O)O)c(OC(F)F)cc2o1` (stereo not shown) [Example 48, 1-((6-(difluoromethoxy)-2-(2-methyl-[1,1′-biphenyl]-3-yl)benzo[d]oxazol-5-yl)methyl)azetidine-2-carboxylic acid] stands 0.1 to 10 nM.
Still for that read-out and setting: for `CC[C@H](NCc1cc2nc(-c3cccc(-c4ccccc4)c3C)oc2cc1OC(F)F)C(=O)O` [Example 40, (S)-2-(((6-(difluoromethoxy)-2-(2-methyl-[1,1′-biphenyl]-3-yl)benzo[d]oxazol-5-yl)methyl)amino)butanoic acid] the value was 0.1 to 10 nM; for `CSc1cc2oc(-c3cccc(-c4ccccc4)c3C)nc2cc1CN[C@@H](C(=O)O)[C@@H](C)O` [Example 3, ((2-(2-methyl-[1,1′-biphenyl]-3-yl)-6-(methylthio)benzo[d]oxazol-5-yl)methyl)-D-allothreonine], 10 to 100 nM; for `Cc1c(-c2ccccc2)cccc1-c1nc2cc3c(cc2o1)OCCN(CC(=O)O)C3` [Example 71, 2-(2-(2-methyl-[1,1′-biphenyl]-3-yl)-6,7-dihydrooxazolo[5′,4′:4,5]benzo[1,2-f][1,4]oxazepin-8(9H)-yl)acetic acid], 100 to 1000 nM.
As for `Cc1cc2oc(-c3cccc(-c4ccccc4)c3C#N)nc2cc1CN1CCC[C@@H]1C(=O)O` [Example 17, ((2-(2-cyano-[1,1′-biphenyl]-3-yl)-6-methylbenzo[d]oxazol-5-yl)methyl)-D-proline], the IC50 lay in the range of 0.1 to 10 nM.

Still in this data set, the particulars now being: Table 6, numeric values.
The compound `Cc1c(-c2ccccc2)cccc1-c1nc2cc(CN3CCC[C@H]3C(=O)O)c(Cl)cc2o1` [Example 20, ((6-chloro-2-(2-methyl-[1,1′-biphenyl]-3-yl)benzo[d]oxazol-5-yl)methyl)-L-proline] came in with an IC50 of 1.8 nM.
In the case of `Cc1c(-c2ccccc2)cccc1-c1nc2cc(CN3CCC[C@H]3C(=O)O)c(C(F)(F)F)cc2o1` [Example 28, ((2-(2-methyl-[1,1′-biphenyl]-3-yl)-6-(trifluoromethyl)benzo[d]oxazol-5-yl)methyl)-L-proline], the IC50 came out at 1.4 nM.
Still for that read-out and setting: under `CSc1cc2oc(-c3cccc(-c4ccccc4)c3C)nc2cc1CN1CCCC[C@H]1C(=O)O` [Example 1, (S)-1-((2-(2-methyl-[1,1′-biphenyl]-3-yl)-6-(methylthio)benzo[d]oxazol-5-yl)methyl)piperidine-2-carboxylic acid] stands 1.9 nM; under `Cc1c(-c2ccccc2)cccc1-c1nc2cc(CN3CCC[C@H]3C(=O)O)c(F)cc2o1` [Example 24, ((6-fluoro-2-(2-methyl-[1,1′-biphenyl]-3-yl)benzo[d]oxazol-5-yl)methyl)-L-proline], 7.2 nM.
Still for that read-out and setting: under `Cc1c(-c2ccccc2)cccc1-c1nc2cc(CN3CCCC[C@H]3C(=O)O)c(F)cc2o1` [Example 25, (S)-1-((6-fluoro-2-(2-methyl-[1,1′-biphenyl]-3-yl)benzo[d]oxazol-5-yl)methyl)piperidine-2-carboxylic acid] stands 7.4 nM.

Test system in another data set: not listed separately
Briefly: Pharmacokinetic Assay. The class given is in vivo. The note with it: rat; male rats, single oral (intragastric) dose 25 mg/kg, plasma. As for the experimental part:
Healthy adult male rats were subjected to single-dose of the test compounds with 10% DMSO, 10% Kolliphor® HS 15 and 80% Saline as excipients, and the rats were giving oral administration (intragastric administration) with the compounds at a dose of 25 mg/kg, Before the experiment, the animals were fasted overnight, and the fasting time last from 12 hrs prior to the administration to 4 hrs after the administration. Time of blood collection: 15 min, 30 min, 1 h, 2 h, 4 h, 7 h, 24 h. Approximately 0.3 mL of whole blood was collected from retro-orbital venous sinus, and placed into tubes that contained EDTA as an anticoagulant. The samples were centrifuged at 4° C. and 4000 rpm for 5 min. The plasma was transferred into centrifuge tubes, and stored at −20° C. till being analyzed. Concentrations of test compounds in the plasma samples were analyzed with liquid chromatography-tandem mass spectrometry (LC-MS/MS). Plasma concentration-time data of individual animals was analyzed using WinNonlin (version 4.1; Pharsight) software. Non-compartmental model was introduced in concentration analysis. The pharmacokinetic parameters of the test compounds were calculated.
On to `Cc1c(-c2ccccc2)cccc1-c1nc2cc(CN3CCC[C@H]3C(=O)O)c(OC(F)F)cc2o1` [Example 36, ((6-(difluoromethoxy)-2-(2-methyl-[1,1′-biphenyl]-3-yl)benzo[d]oxazol-5-yl)methyl)-L-proline], for which the area under the curve (AUC) came out at 119000 ng·h/mL, the maximum concentration (Cmax) was determined as 10200 ng/mL, the time of peak concentration (Tmax) turned out to be 0.5 h and the half-life was 9.3 h.
Take `Cc1c(-c2ccccc2)cccc1-c1nc2cc(CN3CCC[C@H]3C(=O)O)c(Cl)cc2o1` [Example 20, ((6-chloro-2-(2-methyl-[1,1′-biphenyl]-3-yl)benzo[d]oxazol-5-yl)methyl)-L-proline]: the AUC turned out to be 74500 ng·h/mL, the concentration peaked (Cmax) at 8270 ng/mL, the Tmax turned out to be 1 h and the half-life is 7.52 h.
In the same order, the values of `Cc1c(-c2ccccc2)cccc1-c1nc2cc(CN3CCC[C@H]3C(=O)O)c(C(F)(F)F)cc2o1` [Example 28, ((2-(2-methyl-[1,1′-biphenyl]-3-yl)-6-(trifluoromethyl)benzo[d]oxazol-5-yl)methyl)-L-proline] are 319000 ng·h/mL, 14400 ng/mL, 0.3 h and 41.2 h.
`COc1cc2oc(-c3cccc(-c4ccccc4)c3C)nc2cc1CNCCO` [Com. EX. No. 2, 2-(((6-methoxy-2-(2-methyl-[1,1′-biphenyl]-3-yl)benzo[d]oxazol-5-yl)methyl)amino)ethan-1-ol, reference compound]: the exposure (AUC) was found to be 5150 ng·h/mL, the Cmax stood at 329 ng/mL, the time to peak (Tmax) was 4 h and the half-life was 14.4 h.
In the same order, the values of `Cc1c(-c2ccccc2)cccc1-c1nc2cc(CN3CCCC[C@H]3C(=O)O)c(OCC#N)cc2o1` [Com. EX. No. 1, 1-((6-(cyanomethoxy)-2-(2-methyl-[1,1′-biphenyl]-3-yl)benzo[d]oxazol-5-yl)methyl)piperidine-2-carboxylic acid, reference compound] are 5840 ng·h/mL, 881 ng/mL, 0.5 h and 3.42 h.

Source of the values: patent publication US20220041583A1, “IMMUNOMODULATORS, COMPOSITIONS AND METHODS THERE OF” (BETTA PHARMACEUTICALS CO., LTD, priority 2018, published 2022).
